Data set [1] can be described thus: Single dose pharmacokinetics of VRx-3996 in patients, serum, cycle 1 day 1. The class given is in vivo, humans. The conditions noted are these: human, po. How it is done:
Patients enrolled in study were administered oral nanatinostat and valganciclovir at predefined doses. […] 8.1 software.

The target of a further data set is T1, HDAC11 (Homo sapiens, UniProt Q96DB2).
T1 sequence (Q96DB2 1-347): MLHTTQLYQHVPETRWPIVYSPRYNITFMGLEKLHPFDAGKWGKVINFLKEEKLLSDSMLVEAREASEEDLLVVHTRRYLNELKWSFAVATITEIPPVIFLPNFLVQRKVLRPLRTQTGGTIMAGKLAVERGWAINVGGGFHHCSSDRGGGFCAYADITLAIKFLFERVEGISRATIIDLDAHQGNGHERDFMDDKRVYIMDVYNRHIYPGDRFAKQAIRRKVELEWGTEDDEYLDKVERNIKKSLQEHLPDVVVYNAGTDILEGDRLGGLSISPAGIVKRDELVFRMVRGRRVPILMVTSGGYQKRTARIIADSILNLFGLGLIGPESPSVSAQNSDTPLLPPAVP
As to the kind of experiment: in vitro HDAC inhibition assay (fluorescence), HDAC11. The format is biochemical. The conditions noted are these: HDAC11. How it is done:
(§1) Briefly, all of the compounds are dissolved in DMSO. A series of dilutions of the compounds were prepared with 10% DMSO in HDAC assay buffer and 5 μl of the dilution was added to a 50 μl reaction so that the final concentration of DMSO is 1% in all of reactions. The compounds were pre-incubated in duplicate at RT for 1 hour in a mixture containing HDAC assay buffer, 5 μg BSA, HDAC enzyme (see Table 7) and a the particular HDACi. After 1 hour, the enzymatic reactions were initiated by the addition of HDAC substrate (BPS Bioscience) to a final concentration of 10 μM or 2 μM. The enzymatic reaction proceeded for 30 minutes at 37° C.
(§2) HDAC activity assays were performed in duplicates at each concentration. The fluorescent intensity data were analyzed using the computer software, Graphpad Prism. In the absence of the compound, the fluorescent intensity (Ft) in each data set was defined as 100% activity. In the absence of HDAC, the fluorescent intensity (Fb) in each data set was defined as 0% activity. The percent activity in the presence of each compound was calculated according to the following equation: % activity=(F−Fb)/(Ft−Fb), where F=the fluorescent intensity in the presence of the compound. […]

Another data set concerns the target HDAC3/NCOR2 (Homo sapiens, UniProt O15379). As to the kind of experiment: biochemical. How it is done: as §1
(§3) HDAC activity assays were performed in duplicates at each concentration. The fluorescent intensity data were analyzed using the computer software, Graphpad Prism. In the absence of the compound, the fluorescent intensity (Ft) in each data set was defined as 100% activity. In the absence of HDAC, the fluorescent intensity (Fb) in each data set was defined as 0% activity. The percent activity in the presence of each compound was calculated according to the following equation: % activity=(F−Fb)/(Ft−Fb), where F=the fluorescent intensity in the presence of the compound.
(§4) The values of % activity versus a series of compound concentrations were then plotted using non-linear regression analysis of Sigmoidal dose-response curve generated with the equation Y=B+(T−B)/1+10^((Log C50−X)×Hill Slope), where Y=percent activity, B=minimum percent activity, T=maximum percent activity, X=logarithm of compound and Hill Slope=slope factor or Hill coefficient. The IC50 value was determined by the concentration causing a half-maximal percent activity.

A further data set has as its target T2, HDAC8 (Homo sapiens, UniProt Q9BY41).
T2 sequence (Q9BY41 1-377): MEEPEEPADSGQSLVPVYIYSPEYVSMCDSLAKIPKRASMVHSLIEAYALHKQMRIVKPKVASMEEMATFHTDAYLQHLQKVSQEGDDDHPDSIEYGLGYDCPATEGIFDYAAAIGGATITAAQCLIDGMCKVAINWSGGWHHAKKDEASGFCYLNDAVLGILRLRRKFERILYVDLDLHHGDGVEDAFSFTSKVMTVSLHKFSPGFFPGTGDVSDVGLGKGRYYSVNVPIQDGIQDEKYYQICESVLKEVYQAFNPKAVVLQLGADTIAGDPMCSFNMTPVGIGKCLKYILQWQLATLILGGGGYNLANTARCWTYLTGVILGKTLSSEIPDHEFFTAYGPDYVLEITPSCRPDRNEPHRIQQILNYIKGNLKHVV
As to the kind of experiment: biochemical. How it is done:
as §1, §3, §4

For another data set, the target named is HDAC2 (Homo sapiens, UniProt Q92769). Description: biochemical. How it is done: as §1, §3, §4
In the next data set the target is T3, HDAC7 (Homo sapiens, UniProt Q8WUI4).
T3 sequence (Q8WUI4 1-952): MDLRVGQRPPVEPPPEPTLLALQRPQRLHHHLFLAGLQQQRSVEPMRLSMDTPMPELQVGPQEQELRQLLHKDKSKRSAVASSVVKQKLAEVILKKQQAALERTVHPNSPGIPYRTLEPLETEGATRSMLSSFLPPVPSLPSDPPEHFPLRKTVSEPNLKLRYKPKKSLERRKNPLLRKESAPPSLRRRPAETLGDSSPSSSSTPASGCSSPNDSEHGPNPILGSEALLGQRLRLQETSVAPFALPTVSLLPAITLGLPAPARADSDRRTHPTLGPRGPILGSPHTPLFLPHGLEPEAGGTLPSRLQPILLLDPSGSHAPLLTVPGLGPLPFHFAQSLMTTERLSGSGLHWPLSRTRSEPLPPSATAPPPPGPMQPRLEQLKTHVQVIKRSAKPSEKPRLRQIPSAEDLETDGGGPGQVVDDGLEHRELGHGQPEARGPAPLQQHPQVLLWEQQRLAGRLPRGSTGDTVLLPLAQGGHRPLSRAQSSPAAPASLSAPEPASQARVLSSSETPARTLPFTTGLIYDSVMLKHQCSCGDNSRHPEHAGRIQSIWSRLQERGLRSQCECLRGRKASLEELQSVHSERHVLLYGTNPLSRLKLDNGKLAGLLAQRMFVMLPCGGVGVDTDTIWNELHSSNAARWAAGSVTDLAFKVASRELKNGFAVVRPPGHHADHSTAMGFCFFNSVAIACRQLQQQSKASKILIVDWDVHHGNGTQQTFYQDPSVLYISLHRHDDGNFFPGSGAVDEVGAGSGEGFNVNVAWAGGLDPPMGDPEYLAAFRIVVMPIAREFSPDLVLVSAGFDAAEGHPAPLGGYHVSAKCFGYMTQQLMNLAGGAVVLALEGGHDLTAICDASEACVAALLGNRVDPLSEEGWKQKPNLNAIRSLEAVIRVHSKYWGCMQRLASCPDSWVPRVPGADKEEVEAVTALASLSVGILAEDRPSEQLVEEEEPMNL
Description: in vitro HDAC inhibition assay (fluorescence), HDAC7. The conditions noted are these: HDAC7. The format is biochemical. How it is done: as §1, §2

Read-outs that look alike come from different tables or passages of the source.

Sequence of HDAC3/NCOR2 (O15379 whole entry): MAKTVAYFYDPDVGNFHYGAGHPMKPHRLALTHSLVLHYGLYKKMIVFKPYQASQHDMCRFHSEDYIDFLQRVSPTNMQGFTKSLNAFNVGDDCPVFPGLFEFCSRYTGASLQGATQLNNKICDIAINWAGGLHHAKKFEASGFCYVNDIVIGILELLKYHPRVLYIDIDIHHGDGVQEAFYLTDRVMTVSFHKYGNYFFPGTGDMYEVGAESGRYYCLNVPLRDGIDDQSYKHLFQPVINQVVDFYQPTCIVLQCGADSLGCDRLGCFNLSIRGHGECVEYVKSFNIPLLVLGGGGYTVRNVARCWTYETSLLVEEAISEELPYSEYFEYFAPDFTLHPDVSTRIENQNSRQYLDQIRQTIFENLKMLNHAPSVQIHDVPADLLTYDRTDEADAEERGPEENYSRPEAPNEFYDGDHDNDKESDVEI
Sequence of HDAC3/NCOR2 (Q9Y618 395-489 partner limits assumed): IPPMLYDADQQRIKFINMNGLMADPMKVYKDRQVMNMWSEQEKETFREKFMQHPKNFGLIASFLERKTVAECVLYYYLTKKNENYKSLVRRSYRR
Sequence of HDAC2 (Q92769 whole entry): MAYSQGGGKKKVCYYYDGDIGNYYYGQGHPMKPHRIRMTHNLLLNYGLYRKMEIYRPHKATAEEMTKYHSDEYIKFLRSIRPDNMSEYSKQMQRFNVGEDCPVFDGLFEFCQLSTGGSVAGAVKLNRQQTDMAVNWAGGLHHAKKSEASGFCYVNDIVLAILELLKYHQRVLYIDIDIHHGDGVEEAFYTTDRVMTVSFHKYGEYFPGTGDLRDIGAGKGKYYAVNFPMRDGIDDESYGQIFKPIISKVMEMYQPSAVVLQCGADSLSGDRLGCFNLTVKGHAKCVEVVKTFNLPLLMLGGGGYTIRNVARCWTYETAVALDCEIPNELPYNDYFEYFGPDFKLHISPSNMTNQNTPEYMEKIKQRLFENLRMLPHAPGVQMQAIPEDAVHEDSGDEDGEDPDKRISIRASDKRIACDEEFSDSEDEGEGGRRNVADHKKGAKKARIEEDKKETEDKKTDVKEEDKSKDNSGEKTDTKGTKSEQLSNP

One may read the AUC as the area under the concentration-time curve, a measure of exposure. Broadly, the Cmax is the highest concentration seen after dosing. For orientation: Tmax means the time at which the peak concentration occurs. As usually defined, the IC50 is the concentration at which inhibition is half-maximal. Read a low IC50 as greater potency in that assay. For `O=C(NO)c1cnc(N2CC3C(C2)C3NCc2ccc3cc(F)ccc3n2)nc1` (stereo not drawn) [Nstat, 2-(6-{[(6-Fluoroquinolin-2-yl)methyl]amino}-3-azabicyclo[3.1.0]hex-3-yl)-N-hydroxypyrimidine-5-carboxamide], the AUC in data set [1] (Treatment A = 5 mg VRx-3996 p.o. and 450 mg Valganciclovir p.o., single dose, N=1, read-out: AUC, geometric mean) was 117 ng·h/mL; in data set [1] (Treatment B = 10 mg VRx-3996 p.o. and 450 mg Valganciclovir p.o., single dose, N=1, read-out: AUC, geometric mean), 317 ng·h/mL; in data set [1] (Treatment C = 10 mg VRx-3996 p.o. and 900 mg Valganciclovir p.o., single dose, N=4, read-out: AUC, geometric mean) it was 322 ng·h/mL. Besides, the half-life in data set [1] (Treatment A = 5 mg VRx-3996 p.o. and 450 mg Valganciclovir p.o., single dose, N=1, read-out: Half-Life, geometric mean (converted)) was 131 min; in data set [1] (Treatment B = 10 mg VRx-3996 p.o. and 450 mg Valganciclovir p.o., single dose, N=1, read-out: Half-Life, geometric mean (converted)), 70.2 min; in data set [1] (Treatment C = 10 mg VRx-3996 p.o. and 900 mg Valganciclovir p.o., single dose, N=4, read-out: Half-Life, geometric mean (converted)) it was 100 min; in data set [1] (humans, oral nanatinostat with valganciclovir, read-out: T1/2 (converted)), about 120 min. Also, the AUC(0-t) in data set [1] (Treatment A = 5 mg VRx-3996 p.o. and 450 mg Valganciclovir p.o., single dose, N=4, read-out: AUClast, geometric mean) is 40.5 ng·h/mL; in data set [1] (Treatment B = 10 mg VRx-3996 p.o. and 450 mg Valganciclovir p.o., single dose, N=9, read-out: AUClast, geometric mean), 165 ng·h/mL; in data set [1] (Treatment C = 10 mg VRx-3996 p.o. and 900 mg Valganciclovir p.o., single dose, N=6, read-out: AUClast, geometric mean), 227 ng·h/mL. In addition, the Cmax amounted to 18.5 ng/mL in data set [1] (Treatment A = 5 mg VRx-3996 p.o. and 450 mg Valganciclovir p.o., single dose, N=4, read-out: Cmax, geometric mean); 62.6 ng/mL in data set [1] (Treatment B = 10 mg VRx-3996 p.o. and 450 mg Valganciclovir p.o., single dose, N=9, read-out: Cmax, geometric mean); 78.9 ng/mL in data set [1] (Treatment C = 10 mg VRx-3996 p.o. and 900 mg Valganciclovir p.o., single dose, N=6, read-out: Cmax, geometric mean). For the same compound, the Tmax worked out at 3 h in data set [1] (Treatment A = 5 mg VRx-3996 p.o. and 450 mg Valganciclovir p.o., single dose, N=4, read-out: Tmax, median (range)); 2 h in data set [1] (Treatment B = 10 mg VRx-3996 p.o. and 450 mg Valganciclovir p.o., single dose, N=9, read-out: Tmax, median (range)); 1 h in data set [1] (Treatment C = 10 mg VRx-3996 p.o. and 900 mg Valganciclovir p.o., single dose, N=6, read-out: Tmax, median (range)). The IC50 against HDAC11 stood at 2800 nM; against HDAC3/NCOR2 it was 12 nM; against HDAC8 it was 860 nM; at HDAC2 it was 12 nM; at HDAC7, 1600 nM.
